# Measurements published in patent publication US12145920B2, “Lanthionine c-like protein 2 ligands, cells prepared therewith, and therapies using same” (NImmune Biopharma, Inc., priority 2019, dated 2024).
# Key:
# LANCL2 protein = target: T1, LANCL2 protein (Homo sapiens, UniProt Q9NS86); assay: Surface plasmon resonance binding to LANCL2 (Biacore T200); conditions: SPR, immobilized LANCL2, analyte 0-40 μM
# T1 construct: made in house; host or cells: Pichia pastoris
# T1 sequence (Q9NS86 1-450): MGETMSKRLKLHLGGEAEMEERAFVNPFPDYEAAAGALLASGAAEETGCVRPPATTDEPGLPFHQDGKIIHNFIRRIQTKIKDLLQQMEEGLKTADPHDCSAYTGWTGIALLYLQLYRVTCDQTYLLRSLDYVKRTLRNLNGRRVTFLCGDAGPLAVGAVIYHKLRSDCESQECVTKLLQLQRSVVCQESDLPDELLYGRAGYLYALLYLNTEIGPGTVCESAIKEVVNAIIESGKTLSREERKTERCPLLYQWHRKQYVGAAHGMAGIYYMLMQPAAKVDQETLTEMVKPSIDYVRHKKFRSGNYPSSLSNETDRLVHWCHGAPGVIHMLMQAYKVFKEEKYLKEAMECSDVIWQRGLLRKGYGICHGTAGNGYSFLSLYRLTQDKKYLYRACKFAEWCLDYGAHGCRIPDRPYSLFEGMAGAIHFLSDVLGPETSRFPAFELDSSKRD
# Protocol: LANCL2 production and purification. LANCL2 was cloned into E. coli, amplified and transfected in Pichia pastoris. P. pastoris was plated onto adenine selective media. Stable transfected colonies were selected and grown within YPD broth at 30° C. for 24 hours, 240 RPM shaking. Starter culture was used to inoculate base media (1% yeast extract, 2% peptone, 1% sorbitol, 2% yeast nitrogen base) containing biotin and buffered with potassium phosphate. Inoculated base media was incubated for 48 hours at 30° C., 240 RPM. P. pastoris was then pelleted by centrifugation and resuspended in expression media (1% sorbitol, 2% yeast nitrogen base) containing biotin and buffered with potassium phosphate. Culture was induced daily for protein production through addition of methanol and incubated for a total of 4 days at 28° C., 240 RPM. After incubation, cells were pelleted by centrifugation and lysed by sonication. Recombinant LANCL2 protein was purified by fast protein liquid chromatography (AktaPrime) using immobilized metal affinity chromatography. Fractions of protein were eluted in 1 mL aliquots and evaluated for LANCL2 content.
# Surface plasmon resonance. A Biacore T200 was used to evaluate binding to the LANCL2 protein. Protein was immobilized onto the CMS sensor chip. […] Based on the immobilized response values, theoretical Rmax values were calculated. […]
# influenza A (H1N1) = assay: Mouse model of influenza A virus infection; format: in vivo, C57BL/6 mice
# Protocol: Mouse model. Eight- to ten-week old wild type C57BL/6 mice were anesthetized by isoflurane inhalation. Mice were infected with influenza A (H1N1) intranasally at a challenge titer of 350 pfu/mouse. Mice were treated daily with BT-63 at a dose of 20 mg/kg orally via gavage. Mice were weighed and scored daily over 12 days. Mice were euthanized at days 12 to measure immune responses by flow cytometry in the lungs.
# Flow Cytometry. Lungs will be chopped into small pieces and collected into RPMI/FBS/CaCl2 buffer containing collagenase (300 U/mL) and DNase (50 U/mL) for digestion. Tissues will be digested for 60 to 90 minutes under stirring at 37° C. Resultant cellular suspensions will be filtered through 100 μm strainers, centrifuged (300×g, 8 min), and washed in fresh RPMI. Red blood cells will be lysed by hypotonic lysis and removed by filtration. Cells will be washed and plated for flow cytometry staining. Cells will be labeled with mixtures of extracellular (CD45, CD3, CD4, CD8, CD19, NK1.1, CD25, F4/80, CD11b, CD11c, Gr1, CX3CR1, CD64, SiglecF, Ly6C) and intracellular (Tbet, RORγT, FOXP3, IFNγ, IL6, IL10, IFNb) antibodies in a sequential live staining in 96-well plates. Data will be acquired using a FACS Celesta flow cytometer with FACSDiva software.
# [1] = tested on: resiquimod-treated C57BL6 mice; assay: TLR7/9 (resiquimod) induced mouse model of SLE; format: in vivo
# Protocol: Resiquimod model. Resiquimod was prepared in a 1:3 ethanol:acetone mixture to provide 85 micrograms of resiquimod to each mouse. Resiquimod solution was well mixed and applied to the ear of C57BL6 mice three times weekly over a 2-week period. Mice were monitored for signs of disease daily.
# Treatment administration. BT-63 was prepared within a 0.5% methylcellulose (12-15 cP) solution. Dosage used was 20 mg/kg delivered once daily. Mice were weighed on a weekly basis to update dosage formulation. Dosage was calculated based off mean body weights for each gender. Oral dosage was delivered by orogastric gavage of dosage in 0.2 mL volume.
# Immunological analysis. Blood was collected by cardiac puncture into EDTA tube. Plasma was separated following centrifugation and assayed by ELISA for anti-dsDNA antibodies. Urine was collected for assay for albumin content to test for kidney function.
# Spleens were excised, crushed and filtered to provide a cellular suspension. Red blood cells were lysed. Cells were labeled with mixtures of extracellular (CD45, CD3, CD4, CD8, CD19, NK1.1, CD25, F4/80, CD11b, Gr1, CX3CR1, CD64) and intracellular (Tbet, BCL6, FOXP3, IFNγ, IL6, IL10) antibodies in a sequential live staining in 96-well plates in preparation for flow cytometry. Data was captured on a BD FACS Celesta and analyzed using FacsDiva.
# [2] = lung, day 12 post-infection, 20 mg/kg
# [3] = lungs, day 12 post-infection, 20 mg/kg
# [4] = 2 weeks of oral treatment, 20 mg/kg
smiles,measurement,setting,value
"O=C(CN1CCN(C(=O)c2cccc(-c3nc4ccccc4[nH]3)n2)CC1)c1ccccc1 [BT-63, 2-(4-(6-(1H-benzo[d]imidazol-2-yl)picolinoyl)piperazin-1-yl)-1-phenylethanone]",Kd,LANCL2 protein,2.74 µM
same,increase in survival compared to vehicle,"influenza A (H1N1); 12 days post-infection, 20 mg/kg oral daily",over 50%
same,disease activity index,"influenza A (H1N1); day 3 through day 12 post-infection, 20 mg/kg oral vs vehicle",significantly reduces
same,IL10+ CD8+ T cells,influenza A (H1N1); [2],increases
same,alveolar macrophages,influenza A (H1N1); [2],increases
same,proportions of TNFa+ CD4+ T cells,influenza A (H1N1); [3],decreased
same,proportions of neutrophils,influenza A (H1N1); [3],decreased
same,concentration of anti-dsDNA antibodies in plasma,[1]; [4],reduces
same,urine albumin content,[1]; [4],reduction
same,IFNγ+ CD8+ T cells,"[1]; spleen, 2 weeks, 20 mg/kg oral",reduced
same,IL6+ cells,"[1]; spleen, 2 weeks, 20 mg/kg oral",reduced
